Experimental data taken from paper PMC9814687, “Controlling oncogenic KRAS signaling pathways with a Palladium-responsive peptide” (Communications Chemistry, 2022).

What was measured:
HeLa cells = test: MTT toxicity assay; settings: long incubation (24 h), up to 100 µM
Description: cells as follows: 100,000 cells per well were seeded in 96 well plates two days before treatment with different
concentrations of the peptides/metal. After 24 h of incubation, HEPES containing 3-(4,5-dimethylthiazol-2-
yl)-2,5-diphenyl tetrazolium bromide (MTT) was added to the cell culture medium to a final concentration of
0.5 mg/ml. Cells were then incubated for 4 h to allow the formation of formazan precipitates by metabolically
active cells. A detergent solution of 10% SDS (sodium dodecyl sulphate) and 0.01 M HCl was then added,
and the plate was incubated overnight at room temperature to allow the solubilization of the precipitates.
The quantity of formazan in each well (directly proportional to the number of viable cells) was measured by
recording changes in absorbance at 570 nm in a microtiter plate reading spectrophotometer (Tecan Infinite
Toxicity assay. HeLa cells were incubated with peptide, metallopeptide and palladium at
different concentrations, for 24 h at 37 °C. Then, the cells were washed two time with PBS before carry ing
out the MTT assay. Data are mean +/- SEM for experimental repeated in two independent times.

[1] = test system: phospho-ERK1/2 in serum-starved A549 cells; test: Inhibition of ERK1/2 phosphorylation (Western blot, densitometry); type: cell-based; settings: 4 h, Western blot with pERK antibodies
Description: (§1) All steps were performed on a sterile clean bench Telstar AV-100 at rt. Solutions stored in a fridge were warmed beforehand in a water bath (37 °C). Unless otherwise specified, all incubations were performed in DMEM containing 5% of fetal bovine serum (FBS-DMEM). Cell Culture: A549 cell line was cultured in DMEM (Dulbecco´s modified Eagle´s medium), 5 mM glutamine, penicillin (100 units/mL) and streptomycin (100 units/mL), all from Invitrogen. Proliferating cultures were maintained in a 5% CO2 humidified incubator at 37 °C. For all the experiments, cells were seeded in the corresponding well at the indicated concentration 2 days before treatment. A549 cells were seeded on glass-bottom plates 48 h (150.000 cell/ml) before treatment. […] (10 µM) were added. The metallopeptide was made just before the addition to cells by pre-incubating with metal complexes (1:1) in water for 10 min. After 30 min of incubation with cells, these were washed twice with PBS and replaced with fresh FBS-DMEM to observe under the microscope with adequate filters. Digital pictures of the different samples were taken under identical conditions of gain and exposure. A549 cells were seeded on glass-bottom plates (150.000 cell/ml) 48 h before treatment. […] After two washes with PBS, the cells were lysed in Laemmli buffer containing Tris pH 6,8 1 M, Glycerol, SDS, Bromophenol Blue, and β-mercaptoethanol, and heated at 95 °C for 10 min. The samples were separated by SDS-12.5% polyacrylamide gel and transferred to nitrocellulose membrane, to probed by Western blotting. […] The visualization was performed with ChemiDoc MP imaging system by Biorad, and the processing of the images and densitometry quantification was carried out with ImageLab program.

[2] = Circular dichroism (α-helical content); type: physicochemical; settings: 10% TFE, 25 °C
Description: Circular Dichroism was measured on a Jasco-715 coupled with a thermostat Nestlab RTE-111 using a 2 mm Hellma cuvette at 25 °C and the following settings: Acquisition range, 300-195 nm; band width, 2.0 nm; resolution, 0.2 nm; accumulation, 5 scans; sensitivity, 10 mdeg; response time, 0.25 s; speed, 100 nm/min. The spectra are the average of 5 scans and were processed using the “smooth” macro in the program KaleidaGraph (v 3.5 by Synergy Software).
Circular Dichroism. Circular Dichroism was measured on a Jasco-715 coupled with a thermostat Nestlab RTE-111 using a 2 mm Hellma cuvette at 25 °C and the following settings: Acquisition range, 300 -195 nm; band width, 2.0 nm; resolution, 0.2 nm; accumulation, 5 scans; sensitivity, 10 mdeg; response time, 0.25 s; speed, 100 nm/min. The spectra are the average of 5 scans and were processed using the “smooth” macro in the program KaleidaGraph (v 3.5 by Synergy Software).
Fig S3. Left: CD titration experiment.
5 and 10 equivalents of cis-PdCl2(en). The experiments were carried out in 10 mM phosphate buffer pH 7.5, 100 mM of NaCl and 10% TFE, 25 °C. Mean residue molar ellipticity ([ Θ]MRE) was calculated considering the peptide as an 18-mer.
(1 picture or pasted object on this page, not shown here)

A549 cells = test: Cell internalization by fluorescence microscopy; type: cell-based; settings: for cellular internalization (intracellular TMR fluorescence), in words: A549 cells, 10 µM, 30 min at 37 °C, DMEM with 5% FBS, washed with PBS, fluorescence microscopy
Description: as §1
All images were obtained with an Andor Zyla mounted on a Nikon TiE. LED excitation wavelength 550 nm. Filter cube TRITC-B-000 (Semrock): BP 543/22 nm, […] 593/40 nm, and DM 562 nm. Images were further processed with Image J.

NCCN.[Cl][Pd][Cl] [cis-PdCl2(en), reference compound]
cell viability in MTT assay, in words (HeLa cells): remains high
levels of ERK phosphorylation, in words [1]: failed to induce changes

CC[C@H](C)[C@H](NC(=O)CNC(=O)[C@H](Cc1ccccc1)NC(=O)[C@H](Cc1ccccc1)NC(=O)[C@H](CCCNC(=N)N)NC(=O)[C@H](CCCNC(=N)N)NC(=O)CCCCCNC(=O)c1ccc2c(c1)C(=O)OC21c2ccc(N(C)C)cc2Oc2cc(N(C)C)ccc21)C(=O)N[C@@H](Cc1c[nH]cn1)C(=O)N[C@@H](CC(C)C)C(=O)N[C@H](C(=O)N[C@@H](CC(N)=O)C(=O)N[C@@H](Cc1c[nH]cn1)C(=O)N[C@@H](CC(C)C)C(=O)N[C@@H](CCCCN)C(=O)N[C@H](C(=O)N[C@@H](CCC(=O)O)C(=O)N[C@@H](CCC(=O)O)C(=O)NCC(=O)N[C@@H](CC(N)=O)C(N)=O)[C@@H](C)O)[C@@H](C)O [αH-His2[Pd]]
α-helical content ([2]; from CD band at 222 nm, 20 µM peptide + 1 eq. cis-PdCl2(en), 10 mM phosphate pH 7.5, 100 mM NaCl): about 22%
levels of ERK phosphorylation, in words [1]: significant decrease
cellular internalization (intracellular TMR fluorescence), in words (A549 cells): intense intracellular fluorescence signal
cell localization by fluorescence microscopy (A549 cells; cells incubated with the metallopeptide, authors' reply to reviewers): endosomal localization

TMR-Ahx-RRFFGIHLTNHLKTEEGN [αH-His2]
mean residue molar ellipticity at 222 nm ([2]; CD, 20 µM peptide, 10 mM phosphate buffer pH 7.5, 100 mM NaCl, calculated for an 18-mer, metallopeptide 30 min after 1 eq. cis-PdCl2(en)): ≈ −2200 deg cm^2 dmol^−1
levels of ERK phosphorylation, in words [1]: failed to induce changes
cellular internalization (intracellular TMR fluorescence), in words (A549 cells): rather poor internalization
